The target in one assay is p38MAPKα (Homo sapiens, UniProt Q16539). The note with it: disclosed in WO 2004/110990; cited from earlier work.
Assay [1] relates to patients with moderate to severe rheumatoid arthritis. Put plainly: VeRA trial of the p38MAPK inhibitor VX-702 in rheumatoid arthritis. It counts as in vivo, human. The conditions noted are these: according to a Monte Carlo simulation of the distribution of the effects. How it is done: It has been claimed that p38MAPK inhibitors were of benefit in treating a large variety of disorders. […] In the VeRA trial, which was conducted to evaluate treatment effects in terms of characteristic manifestations of the disease such as tender joints, swollen joints, morning stiffness and disease activity in a cohort of 315 patients with moderate to severe rheumatoid arthritis, approximately 40% of patients were responsive to treatment with the p38MAPK inhibitor VX-702, compared to a placebo effect of about 30%, arguing for a biochemical net response rate of about 28% according to a Monte Carlo simulation of the distribution of the effects. So far, no explanation for this evident dichotomy between responders and non-responders has been proposed yet.

The test system is the same in assay [2]. The conditions noted are these: cohort of 315 patients with moderate to severe rheumatoid arthritis; placebo effect about 30%; cited from earlier work.

The structures appear in SMILES notation.

Sequence of p38MAPKα (Q16539 1-360 isoform Q16539-2): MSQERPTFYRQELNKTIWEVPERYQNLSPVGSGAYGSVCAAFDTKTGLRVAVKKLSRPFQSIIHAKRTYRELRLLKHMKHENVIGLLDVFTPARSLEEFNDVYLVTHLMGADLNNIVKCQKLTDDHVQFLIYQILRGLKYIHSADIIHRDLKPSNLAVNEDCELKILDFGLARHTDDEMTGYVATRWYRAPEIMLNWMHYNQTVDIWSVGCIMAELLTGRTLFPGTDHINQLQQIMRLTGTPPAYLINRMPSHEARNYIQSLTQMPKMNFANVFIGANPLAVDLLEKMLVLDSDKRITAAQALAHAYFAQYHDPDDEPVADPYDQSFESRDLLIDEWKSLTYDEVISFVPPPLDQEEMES

For orientation: IC50 means the concentration at which inhibition is half-maximal. As to `Fc1ccc(-c2nc3occn3c2-c2ccnc(NC3CC3)n2)cc1` [4-(4-fluorophenyl)-5-(2-[cyclopropyl-amino]-pyrimidyl-4-yl)-imidazooxazole], the IC50 at p38MAPKα is 0.44 nM.

With `NC(=O)c1ccc(N(C(N)=O)c2c(F)cccc2F)nc1-c1ccc(F)cc1F` [VX-702], the “biochemical net response rate” value in assay [1] is listed as “about 28%”. Moreover, in assay [2], the “patients responsive to treatment” value was “approximately 40%”.

Source of the values: patent US20090098536A1, “Method for subgroup analysis in subjects having or being suspected of having inflammatory disease, use of anti-p38MAPK antibodies, kits and their use” (c-a-i-r- biosciences GmbH, priority 2007, published 2009).
